Results taken from publication PMC6701825, “Antiproliferative and Antimigratory Effects of a Novel YAP–TEAD Interaction Inhibitor Identified Using in Silico Molecular Docking” (Journal of Medicinal Chemistry, 2019).

Legend:
[1] = target: T1, myc-TEAD1:GFP-YAP complexes (Homo sapiens, UniProt P28347); assay: Co-immunoprecipitation of myc-TEAD1 and GFP-YAP; assay type: binding; conditions: 200 μM CPD3
T1 construct: #17843 (GFP-YAP1); host or cells: HeLa
Description: Figure 1 BUDE screening-identified compound 3 for TEAD inhibition. (A) HeLa cells were stably transduced with a lentiviral viral vector containing 8×TEAD-secreted nanoluciferase reporter gene (TEAD-NLUC). Cells were transfected with non-targeting siRNA (siNEG), siRNA targeting YAP (siYAP), control adenoviral vector or an adenovirus expression constitutively active YAPS127A (Ad:YAP). Culture media were conditioned for 6 h and assayed for secreted nanoluciferase activity (n = 3). (B) HeLa cells stably transduced with TEAD-NLUC were treated with 100 μM of indicated compound for 6 h. Cell conditioned media were assayed for nanoluciferase activity (n = 3). […] (D) Recombinant GST-TEAD1 protein bound to glutathione resin was incubated with 200 μM of the indicated compounds and HEK293 cell lysate containing endogenous YAP protein for 18 h at 4 °C. The resin was washed, and bound YAP eluted and quantified by Western blotting (n = 2). […] Co-immunoprecipitated YAP or TEAD was quantified by Western blotting. […]
HeLa cells were transiently transfected with either pRK5-myc-TEAD1 (Addgene #33109) or pEGFP-C3-YAP1 (Addgene #17843). […] Following washing, immunoprecipitated proteins were eluted by boiling in sodium dodecyl sulfate (SDS) buffer (50 mM Tris pH 6.8, 20% glycerol, 2% SDS) and analyzed by Western blotting.

TEAD2 = target: T2, TEAD2 (Homo sapiens, UniProt Q15562); assay: GAL4-TEAD2 fusion / 5xGAL4-secNLUC reporter in HeLa cells; assay type: cell-based; conditions: 100 μM, 6 h
T2 construct: #18881 (FLAG-YAP); host or cells: HeLa
Source text: TEAD proteins (TEAD1–4) display a high degree of sequence conservation in residues that create the hydrophobic pocket that is essential for YAP binding.[51] YAP proteins also display a high degree of conservation in residues that interact with this pocket.[51] We therefore tested whether CPD3.1 was able to inhibit YAP-induced activity of TEAD1, TEAD2, TEAD3, and TEAD4. To quantify the effect of CPD3.1 on the activity of each individual TEAD paralog, while excluding interference from endogenously expressed TEAD1–4 proteins, we expressed each TEAD paralog (TEAD1–4) fused to the yeast GAL4 DNA-binding domain. Cells were transfected with the GAL4–TEAD expression vector together with a secreted nanoluciferase reporter gene vector under control of a promoter containing five GAL4 DNA-binding elements. This system allows us to study the effect of CPD3.1 on the activity of each individual TEAD protein in isolation, without interference from endogenously expressed transcription factors. In addition, the cells were co-transfected with a YAP expression vector to activate the GAL4–TEAD fusion-dependent transcription (see Supplement Figure 9). Basal activities of TEAD1, TEAD2, TEAD3, and TEAD4 were inhibited by CPD3.1 (Figure 7A–D). […]
Figure 7 Compound 3.1 inhibits TEAD1, TEAD2, TEAD3, and TEAD4 activities. […] Secreted nano-luciferase activity was quantified in the conditioned media. […]

T1 sequence (P28347 whole entry, one chain of several): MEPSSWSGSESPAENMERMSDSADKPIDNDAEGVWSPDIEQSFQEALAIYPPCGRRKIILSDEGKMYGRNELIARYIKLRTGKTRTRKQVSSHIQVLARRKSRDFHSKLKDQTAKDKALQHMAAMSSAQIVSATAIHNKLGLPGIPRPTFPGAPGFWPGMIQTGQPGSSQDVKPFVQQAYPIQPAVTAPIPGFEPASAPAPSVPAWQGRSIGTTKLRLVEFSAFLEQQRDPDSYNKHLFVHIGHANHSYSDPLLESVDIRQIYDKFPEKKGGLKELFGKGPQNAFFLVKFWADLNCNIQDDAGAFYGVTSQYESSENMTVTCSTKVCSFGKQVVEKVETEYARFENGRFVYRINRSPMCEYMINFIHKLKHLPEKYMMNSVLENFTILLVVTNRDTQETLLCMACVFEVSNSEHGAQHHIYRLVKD
T2 sequence (Q15562 whole entry, the tested form may be a part): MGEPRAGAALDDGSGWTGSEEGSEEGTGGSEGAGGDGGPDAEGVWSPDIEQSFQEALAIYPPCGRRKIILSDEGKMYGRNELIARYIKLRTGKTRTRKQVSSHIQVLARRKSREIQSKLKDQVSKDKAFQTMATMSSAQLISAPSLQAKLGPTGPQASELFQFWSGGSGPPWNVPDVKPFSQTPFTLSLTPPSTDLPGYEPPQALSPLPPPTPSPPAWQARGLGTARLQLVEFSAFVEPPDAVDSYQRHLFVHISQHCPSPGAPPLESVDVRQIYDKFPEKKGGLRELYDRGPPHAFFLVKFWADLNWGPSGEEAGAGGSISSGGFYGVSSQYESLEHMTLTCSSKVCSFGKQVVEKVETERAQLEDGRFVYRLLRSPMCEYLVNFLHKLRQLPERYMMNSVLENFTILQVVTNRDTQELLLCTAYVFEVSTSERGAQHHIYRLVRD

Row | SMILES | binding of GFP-YAP to immunoprecipitated myc-TEAD1 (myc-Trap co-IP) [1] | binding of myc-TEAD1 to affinity-purified GFP-YAP (GFP-Trap co-IP) [1] | basal activity of GAL4-TEAD2 (TEAD2) | YAP-stimulated activity of GAL4-TEAD2 (TEAD2; YAP overexpression)
1 | Cc1ccc2c(c1)c1c3n2CCN(CC(O)CN2CCN(C(=O)c4ccco4)CC2)C3CCC1 (stereo not shown) [CPD3] | inhibited binding of GFP–YAP | inhibited binding of myc-TEAD1 | – | –
2 | Cc1ccc2c(c1)c1c3n2CCNC3CCC1 (stereo not shown) [CPD3.1] | – | – | inhibited | significantly inhibited
